Experimental data reported in patent US20250195521A1 (Revolution Medicines, Inc., priority 2020, published 2025).
Like-named read-outs stand apart in the source and are kept apart here.

Legend:
[1] = tested on: NCI-H358 cells (K-Ras G12C); test: CellTiter-Glo cell viability, NCI-H358; assay type: cell-based, human; details: Homo sapiens, NCI-H358, 120 h, read-out: H358 Cell Viability IC50
Method in brief: (§1)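 Cells seeded, compound dispensed straight into wells, 5-day exposure. Plates brought to room temperature ~30 min, CellTiter-Glo luminescence measured. Normalized to DMSO (%), 4-parameter logistic fit.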

[2] = tested on: Capan-1 cells (K-Ras G12V); test: CellTiter-Glo cell viability, Capan-1; assay type: cell-based, human; details: Homo sapiens, CAPAN-1, 120 h, read-out: Capan-1 Cell Viability IC50
Method in brief: as §1

KRAS G12C = KRAS G12C (Homo sapiens (Human), UniProt P01116+P62937, G12C); test: Ras-Raf disruption/FRET/MOA assay (BRAF RBD, Cyclophilin A); assay type: biochemical; details: read-out: KRAS G12C FRET IC50
Method in brief: (§2)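 Ras-GMPPNP (12.5 nM), BRAF RBD (50 nM) and 25 μM Cyclophilin A were incubated with compound for 3 h at 25° C, then detected 1.5 h with anti-His Eu and anti-GST APC; IC50 values follow from the reduced TR-FRET ratio.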

KRAS G12D = KRAS G12D (Homo sapiens (Human), UniProt P01116+P62937, G12D); test: as above; assay type: biochemical; details: read-out: KRAS G12D FRET IC50
Method in brief: as §2

KRAS G12S = KRAS G12S (Homo sapiens (Human), UniProt P01116+P62937, G12S); test: as above; assay type: biochemical; details: read-out: KRAS G12S FRET IC50
Method in brief: as §2

KRAS G12V = KRAS G12V (Homo sapiens (Human), UniProt P01116+P62937, G12V); test: as above; assay type: biochemical; details: read-out: KRAS G12V FRET IC50
Method in brief: as §2

KRAS G13C = KRAS G13C (Homo sapiens (Human), UniProt P01116+P62937, G13C); test: as above; assay type: biochemical; details: read-out: KRAS G13C FRET IC50
Method in brief: as §2

KRAS G13D = KRAS G13D (Homo sapiens (Human), UniProt P01116+P62937, G13D); test: as above; assay type: biochemical; details: read-out: KRAS G13D FRET data IC50
Method in brief: as §2

KRAS Q61H = KRAS Q61H (Homo sapiens (Human), UniProt P01116+P62937, Q61H); test: as above; assay type: biochemical
Method in brief: as §2

KRAS WT = KRAS WT (Homo sapiens (Human), UniProt P01116+P62937); test: as above; assay type: biochemical; details: read-out: KRAS WT FRET data IC50
Method in brief: as §2

NRAS G12C = NRAS G12C (Homo sapiens (Human), UniProt P01111+P62937, G12C); test: as above; assay type: biochemical; details: read-out: NRAS G12C FRET data IC50
Method in brief: (§3)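 TR-FRET readout: anti-His Eu-W1024 (10 nM) and anti-GST allophycocyanin (50 nM) added after 3 h, 25° C compound incubation, then 1.5 h more. Decrease in FRET ratio versus DMSO wells marks Ras:RAF disruption; IC50 reported.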

NRAS Q61K = NRAS Q61K (Homo sapiens (Human), UniProt P01111+P62937, Q61K); test: as above; assay type: biochemical
Method in brief: as §3

NRAS Q61R = NRAS Q61R (Homo sapiens (Human), UniProt P01111+P62937, Q61R); test: as above; assay type: biochemical
Method in brief: as §3

NRAS WT = NRAS WT (Homo sapiens (Human), UniProt P01111+P62937); test: as above; assay type: biochemical
Method in brief: as §3

Sequence of NRAS G12C (P01111 whole entry G12C): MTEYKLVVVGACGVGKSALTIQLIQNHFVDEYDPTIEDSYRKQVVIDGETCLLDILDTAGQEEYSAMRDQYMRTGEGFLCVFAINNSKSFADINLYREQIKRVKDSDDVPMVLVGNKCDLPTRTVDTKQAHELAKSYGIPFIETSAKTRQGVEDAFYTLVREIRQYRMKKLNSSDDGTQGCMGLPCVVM
Sequence of NRAS G12C (P62937 whole entry): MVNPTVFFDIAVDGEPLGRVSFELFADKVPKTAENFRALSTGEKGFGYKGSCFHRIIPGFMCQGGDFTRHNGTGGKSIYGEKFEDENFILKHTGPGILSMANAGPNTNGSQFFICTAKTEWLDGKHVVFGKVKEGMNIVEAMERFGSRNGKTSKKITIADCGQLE
Sequence of KRAS Q61H (P01116 other isoform, or with tags, fused parts or gaps Q61H): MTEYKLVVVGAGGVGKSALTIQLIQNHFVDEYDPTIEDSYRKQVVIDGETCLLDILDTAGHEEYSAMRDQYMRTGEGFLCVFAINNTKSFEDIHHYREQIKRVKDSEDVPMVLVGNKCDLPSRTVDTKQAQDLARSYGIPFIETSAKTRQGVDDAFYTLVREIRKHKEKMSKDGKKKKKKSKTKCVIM
Sequence of KRAS Q61H (P62937 whole entry): as the sequence (P62937 whole entry) above
Sequence of NRAS Q61R (P01111 whole entry Q61R): as the sequence (P01111 whole entry G12C) above, with C12G, Q61R counted along it
Sequence of NRAS Q61R (P62937 whole entry): as the sequence (P62937 whole entry) above
Sequence of KRAS WT (P01116 other isoform, or with tags, fused parts or gaps): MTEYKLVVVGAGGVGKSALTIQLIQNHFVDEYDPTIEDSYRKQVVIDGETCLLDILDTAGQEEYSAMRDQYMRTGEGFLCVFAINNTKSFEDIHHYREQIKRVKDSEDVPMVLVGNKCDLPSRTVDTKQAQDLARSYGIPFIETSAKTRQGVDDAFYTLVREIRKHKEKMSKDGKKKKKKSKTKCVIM
Sequence of KRAS WT (P62937 whole entry): as the sequence (P62937 whole entry) above
Sequence of NRAS WT (P01111 whole entry): as the sequence (P01111 whole entry G12C) above, with C12G counted along it
Sequence of NRAS WT (P62937 whole entry): as the sequence (P62937 whole entry) above
Sequence of KRAS G12D (P01116 other isoform, or with tags, fused parts or gaps G12D): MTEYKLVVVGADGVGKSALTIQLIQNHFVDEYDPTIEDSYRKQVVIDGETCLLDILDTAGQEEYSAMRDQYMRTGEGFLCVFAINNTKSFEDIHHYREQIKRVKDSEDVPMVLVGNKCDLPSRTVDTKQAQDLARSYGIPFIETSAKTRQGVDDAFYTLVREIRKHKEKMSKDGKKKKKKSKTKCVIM
Sequence of KRAS G12D (P62937 whole entry): as the sequence (P62937 whole entry) above
Sequence of KRAS G13D (P01116 other isoform, or with tags, fused parts or gaps G13D): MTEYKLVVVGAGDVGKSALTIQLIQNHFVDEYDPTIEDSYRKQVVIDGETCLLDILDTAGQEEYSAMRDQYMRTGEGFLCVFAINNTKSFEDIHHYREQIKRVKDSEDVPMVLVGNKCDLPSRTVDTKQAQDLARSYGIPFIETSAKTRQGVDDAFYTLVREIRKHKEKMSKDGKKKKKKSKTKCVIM
Sequence of KRAS G13D (P62937 whole entry): as the sequence (P62937 whole entry) above
Sequence of KRAS G12V (P01116 other isoform, or with tags, fused parts or gaps G12V): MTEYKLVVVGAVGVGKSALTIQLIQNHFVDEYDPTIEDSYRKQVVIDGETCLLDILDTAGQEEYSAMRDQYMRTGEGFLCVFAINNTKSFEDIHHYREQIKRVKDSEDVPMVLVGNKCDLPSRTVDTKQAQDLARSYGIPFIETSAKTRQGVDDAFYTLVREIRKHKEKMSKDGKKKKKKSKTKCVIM
Sequence of KRAS G12V (P62937 whole entry): as the sequence (P62937 whole entry) above
Sequence of KRAS G12S (P01116 other isoform, or with tags, fused parts or gaps G12S): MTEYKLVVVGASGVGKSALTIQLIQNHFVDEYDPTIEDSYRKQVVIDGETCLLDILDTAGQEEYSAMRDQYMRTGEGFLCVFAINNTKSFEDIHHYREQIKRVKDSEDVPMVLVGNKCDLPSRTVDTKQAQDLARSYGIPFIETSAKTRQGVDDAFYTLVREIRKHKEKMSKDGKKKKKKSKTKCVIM
Sequence of KRAS G12S (P62937 whole entry): as the sequence (P62937 whole entry) above
Sequence of NRAS Q61K (P01111 whole entry Q61K): as the sequence (P01111 whole entry G12C) above, with C12G, Q61K counted along it
Sequence of NRAS Q61K (P62937 whole entry): as the sequence (P62937 whole entry) above
Sequence of KRAS G13C (P01116 other isoform, or with tags, fused parts or gaps G13C): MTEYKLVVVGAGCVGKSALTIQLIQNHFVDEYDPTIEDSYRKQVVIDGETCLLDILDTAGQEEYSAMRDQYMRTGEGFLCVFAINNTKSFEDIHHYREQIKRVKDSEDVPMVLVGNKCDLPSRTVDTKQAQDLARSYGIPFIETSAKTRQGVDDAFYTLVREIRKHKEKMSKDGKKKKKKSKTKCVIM
Sequence of KRAS G13C (P62937 whole entry): as the sequence (P62937 whole entry) above
Sequence of KRAS G12C (P01116-2 other isoform, or with tags, fused parts or gaps G12C): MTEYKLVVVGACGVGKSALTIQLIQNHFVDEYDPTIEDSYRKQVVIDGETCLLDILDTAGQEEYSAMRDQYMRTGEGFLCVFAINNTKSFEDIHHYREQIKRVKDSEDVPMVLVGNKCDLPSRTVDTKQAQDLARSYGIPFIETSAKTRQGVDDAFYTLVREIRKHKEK
Sequence of KRAS G12C (P62937 whole entry): as the sequence (P62937 whole entry) above

IC50 ([1]; K-Ras G12C, 5-day treatment) [nM] | IC50 (KRAS G12C) [nM] | IC50 (KRAS G12D) [nM] | IC50 (KRAS G12S) [nM] | IC50 (KRAS G12V) [nM] | IC50 (KRAS G13C) [nM] | IC50 (KRAS G13D) [nM] | IC50 (KRAS Q61H) [nM] | IC50 (KRAS WT) [nM] | IC50 (NRAS G12C) [nM] | IC50 (NRAS Q61K) [nM] | IC50 (NRAS Q61R) [nM] | IC50 (NRAS WT) [nM] | SMILES | IC50 ([2]; K-Ras G12V, 5-day treatment) [nM] | IC50 [1] [nM] | IC50 [2] [nM]
10 to 100 | 100 to 1000 | 1000 to 10000 | 100 to 1000 | 100 to 1000 | 100 to 1000 | 100 to 1000 | 100 to 1000 | 100 to 1000 | 10 to 100 | 100 to 1000 | 100 to 1000 | 100 to 1000 | CCn1c(-c2cccnc2[C@H](C)OC)c2c3cc(ccc31)-c1csc(n1)C[C@H](NC(=O)[C@H](C(C)C)N(C)C(=O)N1CCS(=O)(=O)CC1)C(=O)N1CCC[C@H](N1)C(=O)OCC(C)(C)C2 [Compound A357] | 10 to 100 | – | –
100 to 1000 | 100 to 1000 | 1000 to 10000 | 100 to 1000 | 100 to 1000 | 100 to 1000 | 100 to 1000 | 10 to 100 | 100 to 1000 | 100 to 1000 | 100 to 1000 | 100 to 1000 | 100 to 1000 | CCn1c(-c2cccnc2[C@H](C)OC)c2c3cc(ccc31)-c1csc(n1)C[C@H](NC(=O)[C@H](C(C)C)N(C)C(=O)N1CC[C@@]3(CCNC3=O)C1)C(=O)N1CCC[C@H](N1)C(=O)OCC(C)(C)C2 [Compound A480] | 100 to 1000 | – | –
10 to 100 | 100 to 1000 | 1000 to 10000 | 100 to 1000 | 100 to 1000 | 100 to 1000 | 1000 to 10000 | 100 to 1000 | 100 to 1000 | 100 to 1000 | 100 to 1000 | 100 to 1000 | 100 to 1000 | CCn1c(-c2cccnc2[C@H](C)OC)c2c3cc(ccc31)-c1csc(n1)C[C@H](NC(=O)[C@H](C(C)C)N(C)C(=O)N1CC3(CCOCC3)C1)C(=O)N1CCC[C@H](N1)C(=O)OCC(C)(C)C2 [Compound A521] | 10 to 100 | – | –
10 to 100 | 100 to 1000 | 1000 to 10000 | 1000 to 10000 | 100 to 1000 | 100 to 1000 | 1000 to 10000 | 100 to 1000 | 100 to 1000 | 100 to 1000 | 100 to 1000 | 100 to 1000 | 100 to 1000 | CCn1c(-c2cccnc2[C@H](C)OC)c2c3cc(ccc31)-c1csc(n1)C[C@H](NC(=O)[C@H](C(C)C)N(C)C(=O)N1CC(O)(COC)C1)C(=O)N1CCC[C@H](N1)C(=O)OCC(C)(C)C2 [Compound A553] | 100 to 1000 | – | –
10 to 100 | 100 to 1000 | 100 to 1000 | 100 to 1000 | 100 to 1000 | 100 to 1000 | 100 to 1000 | 10 to 100 | 100 to 1000 | 100 to 1000 | 100 to 1000 | 100 to 1000 | 100 to 1000 | CCn1c(-c2cccnc2[C@H](C)OC)c2c3cc(ccc31)-c1csc(n1)C[C@H](NC(=O)[C@H](C(C)C)N(C)C(=O)N(C)[C@@H]1CCN(C)C1)C(=O)N1CCC[C@H](N1)C(=O)OCC(C)(C)C2 [Compound A564] | 100 to 1000 | – | –
10 to 100 | 100 to 1000 | 100 to 1000 | 100 to 1000 | 100 to 1000 | 100 to 1000 | 100 to 1000 | 10 to 100 | 100 to 1000 | 100 to 1000 | 100 to 1000 | 100 to 1000 | 100 to 1000 | CCn1c(-c2cccnc2[C@H](C)OC)c2c3cc(ccc31)-c1csc(n1)C[C@H](NC(=O)[C@H](C(C)C)N(C)C(=O)N1CCCC3(CN(C)C3)C1)C(=O)N1CCC[C@H](N1)C(=O)OCC(C)(C)C2 [Compound A589] | 100 to 1000 | – | –

The next lines start with the compound.

SMILES | IC50 ([1]; K-Ras G12C, 5-day treatment) [nM] | IC50 (KRAS G12C) [nM] | IC50 (KRAS G12D) [nM] | IC50 (KRAS G12S) [nM] | IC50 (KRAS G12V) [nM] | IC50 (KRAS G13C) [nM] | IC50 (KRAS G13D) [nM] | IC50 (KRAS Q61H) [nM] | IC50 (KRAS WT) [nM] | IC50 (NRAS G12C) [nM] | IC50 (NRAS Q61K) [nM] | IC50 (NRAS Q61R) [nM] | IC50 (NRAS WT) [nM] | IC50 ([2]; K-Ras G12V, 5-day treatment) [nM] | IC50 [1] [nM] | IC50 [2] [nM]
CCn1c(-c2cccnc2[C@H](C)OC)c2c3cc(ccc31)-c1csc(n1)C[C@H](NC(=O)N1CCOCC1)C(=O)N1CCC[C@H](N1)C(=O)OCC(C)(C)C2 [Compound A270] | 100 to 1000 | 100 to 1000 | 100 to 1000 | 100 to 1000 | 100 to 1000 | 100 to 1000 | 100 to 1000 | 100 to 1000 | 100 to 1000 | 100 to 1000 | 100 to 1000 | 100 to 1000 | 100 to 1000 | 1000 to 10000 | – | –
CCn1c(-c2cccnc2[C@H](C)OC)c2c3cc(ccc31)-c1csc(n1)C[C@H](NC(=O)[C@H](C(C)C)N(C)C(=O)N1[C@H](C)COC[C@@H]1C)C(=O)N1CCC[C@H](N1)C(=O)OCC(C)(C)C2 [Compound A276] | 100 to 1000 | 100 to 1000 | 1000 to 10000 | 100 to 1000 | 1000 to 10000 | 100 to 1000 | 1000 to 10000 | 100 to 1000 | 100 to 1000 | 100 to 1000 | 100 to 1000 | 100 to 1000 | 100 to 1000 | 100 to 1000 | – | –
CCn1c(-c2cccnc2[C@H](C)OC)c2c3cc(ccc31)-c1csc(n1)C[C@H](NC(=O)[C@H](C(C)C)N(C)C(=O)[C@@H]1[C@@H]3CN(C)C[C@@H]31)C(=O)N1CCC[C@H](N1)C(=O)OCC(C)(C)C2 [Compound A447] | 100 to 1000 | 100 to 1000 | 100 to 1000 | 100 to 1000 | 1000 to 10000 | 100 to 1000 | 100 to 1000 | 100 to 1000 | 100 to 1000 | 100 to 1000 | 100 to 1000 | 1000 to 10000 | 100 to 1000 | 100 to 1000 | – | –
CCn1c(-c2cccnc2[C@H](C)OC)c2c3cc(ccc31)-c1cc(CF)cc(c1)C[C@H](NC(=O)[C@H](C(C)C)N(C)C(=O)[C@@H]1OCC[C@@H]1c1ccccc1)C(=O)N1CCC[C@H](N1)C(=O)OCC(C)(C)C2 [Compound A509] | 10 to 100 | 10 to 100 | 100 to 1000 | 100 to 1000 | 100 to 1000 | 10 to 100 | 100 to 1000 | 10 to 100 | 100 to 1000 | 10 to 100 | 100 to 1000 | 100 to 1000 | 100 to 1000 | 10 to 100 | – | –
CCn1c(-c2cccnc2[C@H](C)OC)c2c3cc(ccc31)-c1cc(O)cc(c1)C[C@H](NC(=O)[C@H](C(C)C)N(C)C(=O)[C@H]1C[C@H]1O)C(=O)N1CCC[C@H](N1)C(=O)OCC(C)(C)C2 [Compound A554] | 100 to 1000 | 10 to 100 | 100 to 1000 | 10 to 100 | 10 to 100 | 10 to 100 | 100 to 1000 | 10 to 100 | 10 to 100 | 10 to 100 | 100 to 1000 | 100 to 1000 | 10 to 100 | 1000 to 10000 | – | –
CCn1c(-c2cccnc2[C@H](C)OC)c2c3cc(ccc31)-c1csc(n1)C[C@H](NC(=O)[C@H](C(C)C)N1CCC3(COC3)C1)C(=O)N1CCC[C@H](N1)C(=O)OCC(C)(C)C2 [Compound A561] | < 10 | 10 to 100 | 100 to 1000 | 10 to 100 | 100 to 1000 | 100 to 1000 | 100 to 1000 | 10 to 100 | 10 to 100 | 10 to 100 | 10 to 100 | 10 to 100 | 10 to 100 | 10 to 100 | – | –
CCn1c(-c2cccnc2[C@H](C)OC)c2c3cc(ccc31)-c1cc(cc(C(F)F)c1)C[C@H](NC(=O)[C@H](C(C)C)N(C)C(=O)[C@@H]1OCC[C@@H]1c1ccccc1)C(=O)N1CCC[C@H](N1)C(=O)OCC(C)(C)C2 [Compound A592] | – | 100 to 1000 | 1000 to 10000 | 1000 to 10000 | 1000 to 10000 | 100 to 1000 | 1000 to 10000 | 100 to 1000 | 1000 to 10000 | 100 to 1000 | 100 to 1000 | 1000 to 10000 | 1000 to 10000 | – | 100 to 1000 | 1000 to 10000
